Experimental data taken from PMC7022493, “Kinetic, Thermodynamic, and Crystallographic Studies of 2-Triazolylthioacetamides as Verona Integron-Encoded Metallo-β-Lactamase 2 (VIM-2) Inhibitor” (Biomolecules, 2020).

Key:
[1] = tested on: E. coli cells without VIM-2; assay: Antibacterial activity (MIC) against E. coli cells without VIM-2; format: cell-based; conditions: Escherichia coli, read-out: MIC of cefazolin
[2] = tested on: E. coli DH10B-VIM-2; assay: MIC by broth micro-dilution, cefazolin alone or with inhibitors, E. coli producing VIM-2; format: cell-based; conditions: for Decrease in MIC of cefazolin: inhibitor 128 μg/mL
Procedure: The minimum inhibitory concentration (MIC) of antibiotics, both alone and in the presence of enzyme inhibitors, was determined using the broth micro-dilution method. E. coli DH10B containing plasmid pBCSK-VIM-2 grown in MH medium to OD600 = 0.45 were used as inocula, after an 84-fold dilution to 1 × 10^5 CFU/mL in MH medium. Cefazolin was dissolved in MH medium to prepare 1024, 512, 256, 128, 64, 32, 16, and 8 for E. coli producing VIM-2 stock solutions, respectively. Compounds 1a–j, 2a–e, and 3a–e were dissolved in DMSO and diluted with MH media to prepare 64 µg/mL stock solutions. The 50 μL prepared stock solutions with different cefazolin concentrations were diluted with a 50 μL inhibitor stock solution, then 100 μL inoculum was added sequentially. The final concentration of both the inhibitor and cefazolin were a quarter of the stock solution concentrations.
The ability of 2-triazolylthioactamides to restore the antimicrobial activity of cefazolin against the bacteria producing VIM-2 was investigated by determining the MICs of β-lactams in the presence and absence of inhibitors (16 μg/mL). E. coli DH10B containing plasmid pBCSK-VIM-2 was used to study these inhibitors. […] Although the strains treated with a high dose of 2-triazolylthioacetamides (128 μg/mL) were still resistant, they are promising in the future.

[3] = target: T1, VIM-2 (Pseudomonas aeruginosa, UniProt Q9K2N0); assay: VIM-2 enzyme-inhibition assay with nitrocefin as substrate (UV-Vis, 482 nm); format: biochemical, P. aeruginosa
T1 construct: made in house; host or cells: E. coli BL21 (DE3), plasmid pET24a-VIM-2
Procedure: The VIM-2 was overexpressed and purified as previously described. In brief, E. coli BL21 (DE3) cells were transelected with plasmid pET24a-VIM-2. A 10 mL overnight culture of these cells in lysogeny broth (LB) was used to inoculate of M9 media containing kanamycin (25 μg/mL). The cells were allowed to grow at 37 °C with shaking until the optical density at 600 nm (OD600) reached 0.6–0.8. VIM-2 expression was induced with 1 mM IPTG at 25 °C overnight. Cells were collected by centrifugation and lysed by sonication. The supernatant collected by centrifugation was dialyzed three times at 4 °C and loaded on a Q-Sepharose column. Bound protein was eluted with a 0–500 mM NaCl gradient in 30 mM Tris, pH 7.6. The further purification of crude VIM-2 was run though a G75 column (GE Healthcare, Boston, MA, USA) and eluted with 20 mM Tris, pH 7.6, containing 150 mM NaCl, and 5% β-mercaptoethanol. Enzyme purity was analyzed by SDS-PAGE, and determined the concentration by measuring the absorption at 280 nm (extinction co-efficient: 39,000 M^−1cm^−1) using the Nanodrop 2000 c spectrophotometer (Thermo Scientific, Waltham, MA, USA).
The percent inhibition (inhibition%, enzyme activity without inhibitor minus residual activity with 100 μM inhibitor) and IC50 (the inhibitor concentrations causing 50% decrease of enzyme activity) values were measured using a previously established enzyme-inhibition assay on an Agilent UV8453 UV−Vis spectrophotometer using 60 μM nitrocefin (monitoring at 482 nm) as a substrate. The 2-triazolylthioacetamides 1a–j, 2a–e, and 3a–e were dissolved with DMSO and diluted with ddH2O. The VIM-2 and nitrocefin were prepared with a Tris buffer (30 mM, pH 7.6). The final concentration of DMSO inhibition experiments was below 1%. The IC50 values were determined in triplicate against VIM-2, where the inhibitor concentrations were varied between 0 and 120 µM, and final concentrations VIM-2 was 0.6 nM. The tested VIM-2 and inhibitors were premixed at room temperature (30 mM Tris, pH 7.6), and then the substrate in the same buffer was added to the mixture, the initial rates of nitrocefin hydrolysis were recorded at each inhibitor concentration. The percentage inhibition was calculated by the equation inhibition% = 1 − (Vi/V0) and IC50 values were calculated by plotting the average inhibition% against inhibitor concentration and fitting of the data.
To evaluate 2-triazolylthioactamides, the VIM-2 was expressed and purified as previously described. The steady-state kinetic assays were conducted on an Agilent UV8453 spectrometer using nitrocefin (60 µM) as a substrate and monitoring its hydrolytic product at 482 nm.
IC50 values of 1a–j against VIM-2 were measured in 30 mM Tris, pH 7.6, in which the concentrations of inhibitors were varied between 0 and 120 µM. […] Moreover, clogP values of 1a–j (Table 1), as predicted by the ALOGPS 2.1 program, are in the range 1.88–3.05, which are similar with many marked antibacterial agents.

[4] = target: T1, VIM-2; assay: Binding affinity to VIM-2 by isothermal titration calorimetry (ITC); design: species or system P. aeruginosa; conditions: for TΔS / ΔH / Ka / ΔG: ITC, 298 K, Tris-HCl; for TΔS / ΔH / ΔG: pH 7.6; for Ka: pH 7.6, single binding site model; for ΔG: ∆G = ∆H − T∆S
Procedure: Binding affinity measurements were performed by ITC on a Malvern MicroCal-ITC200 at 298 K. The syringe stirring rate was 750 rpm and kept constant. A stock of VIM-2 and inhibitor (1b, 1c, and 1h) were prepared in Tris buffer (30 mM, pH 7.6) with 1% DMSO. The concentration of VIM-2 was 100 μM. Before the injections, the solution of enzyme and inhibitor were degassed by centrifugation (32,583× g, 5 min), respectively. Then, the prepared VIM-2 solution was transferred into the sample cell (210 μL), and the inhibitor (1 mM) in the syringe was titrated into the sample cell by 18 injections (0.5 μL for the first injection and 1.5 μL for the other 17 injections) with 120 s intervals per injection. The heat of dilution for the inhibitor was determined in the control experiment and subtracted from the integrated data before curve fitting. The data were fitted and analyzed with single binding sites using Origin 7.0 software, provided with the instrument.
To investigate the binding affinity of 2-triazolylthioactamides to VIM-2, 1b, 1c, and 1h as enzyme inhibitors were selected based on the inhibitory activity. […] After the best fitting by the single binding site model, the affinity constant (Ka), corresponding dissociation constant (Kd), and thermodynamic parameters (∆H, ΔS, and ΔG) were determined and listed in Table 3.

## Cc1nnc(SCC2=C(C(=O)O)N3C(=O)[C@@H](NC(=O)Cn4cnnn4)[C@H]3SC2)s1 [cefazolin, reference compound]
[1]
  MIC: 1 µg/mL
[2]; Escherichia coli, DH10BVIM2, read-out: MIC of cefazolin
  MIC: 128 µg/mL

## O=C(CSc1nnc(-c2ccccc2C(=O)O)[nH]1)Nc1ccccc1[N+](=O)[O-] [Compound 1i]
[3]
  IC50: 45.2 ± 0.1 µM

## O=C(CSc1nnc(-c2ccccc2C(=O)O)[nH]1)Nc1cccc([N+](=O)[O-])c1 [Compound 1j]
[3]
  IC50: 57.6 ± 0.4 µM

## O=C(CSc1nnc(-c2ccccc2C(=O)O)[nH]1)Nc1ccc([N+](=O)[O-])cc1 [Compound 1e]
[3]
  IC50: 38.2 ± 0.3 µM

## O=C(CSc1nnc(-c2ccccc2C(=O)O)[nH]1)Nc1ccccc1Cl [Compound 1g]
[2]
  Decrease in MIC of cefazolin: 32 fold
[3]
  IC50: 31.4 ± 0.4 µM

## O=C(CSc1nnc(-c2ccccc2C(=O)O)[nH]1)Nc1nc2ccccc2s1 [Compound 1c]
[2]
  Decrease in MIC of cefazolin: 16 fold
[4]
  Kd: 7.94 µM
  TΔS: 5.34 kcal/mol
  ΔH: -1.61 kcal/mol
  Ka: 126000 M⁻¹
  ΔG: -6.95 kcal/mol
[3]
  IC50: 49.1 ± 0.1 µM

## O=C(CSc1nnc(-c2ccccc2C(=O)O)[nH]1)NCc1ccccc1 [Compound 1f]
[3]
  IC50: 45.8 ± 0.2 µM

## O=C(CSc1nnc(-c2ccccc2C(=O)O)[nH]1)Nc1ccccc1 [Compound 1a]
[3]
  IC50: 40.8 ± 0.3 µM

## O=C(CSc1nnc(-c2ccccc2C(=O)O)[nH]1)Nc1ccc(Cl)cc1 [Compound 1d]
[3]
  IC50: 52.2 ± 0.5 µM

## O=C(CSc1nnc(-c2ccccc2C(=O)O)[nH]1)Nc1cccc(Cl)c1 [Compound 1h]
[2]
  Decrease in MIC of cefazolin: 32 fold
[4]
  Kd: 6.41 µM
  TΔS: 1.98 kcal/mol
  ΔH: -5.10 kcal/mol
  Ka: 156000 M⁻¹
  ΔG: -7.08 kcal/mol
[3]
  IC50: 20.6 ± 0.1 µM

## O=C(CSc1nnc(-c2ccccc2C(=O)O)[nH]1)Nc1nc2ccccc2[nH]1 [Compound 1b]
[2]
  Decrease in MIC of cefazolin: 16 fold
[4]
  Kd: 8.62 µM
  TΔS: 4.26 kcal/mol
  ΔH: -2.66 kcal/mol
  Ka: 116000 M⁻¹
  ΔG: -6.92 kcal/mol
[3]
  IC50: 58.6 ± 0.1 µM
